# Measured values taken from PMC9762412 (SLAS discovery : advancing life sciences R & D, 2022).
# Entries after “also recorded” stand apart in the source; their conditions may differ.
# Experiments:
# [1] = system: VTA dopamine neurons, NMDAR EPSCs; experiment: Electrophysiology, NMDAR EPSCs of VTA dopamine neurons in slices; set-up: species or system mouse; settings: CRF 1 μM, VTA-DA neurons, male and female mice
# [2] = system: CRF1+ neurons in the central nucleus of the amygdala (CeA); experiment: Electrophysiology, mIPSCs of CRF1+ neurons in CeA slices; set-up: species or system mouse
smiles,measurement,setting,value
"CC[C@H](C)[C@H](NC(=O)[C@@H](NC(=O)[C@H](CCC(=O)O)NC(=O)[C@H](CCSC)NC(=O)[C@H](CC(C)C)NC(=O)[C@H](CCCCN)NC(=O)[C@H](CCCNC(=N)N)NC(=O)[C@H](CC(N)=O)NC(=O)[C@H](CO)NC(=O)[C@H](Cc1c[nH]cn1)NC(=O)[C@H](C)NC(=O)[C@H](CCC(N)=O)NC(=O)[C@H](CCC(N)=O)NC(=O)[C@H](C)NC(=O)[C@H](CC(C)C)NC(=O)[C@H](CCC(N)=O)NC(=O)[C@H](CCC(=O)O)NC(=O)[C@H](C)NC(=O)[C@H](CCCNC(=N)N)NC(=O)[C@H](C)NC(=O)[C@H](CCSC)NC(=O)[C@H](CCC(=O)O)NC(=O)[C@H](CC(C)C)NC(=O)[C@@H](NC(=O)[C@H](CCC(=O)O)NC(=O)[C@H](CCCNC(=N)N)NC(=O)[C@H](CC(C)C)NC(=O)[C@H](CC(C)C)NC(=O)[C@H](Cc1c[nH]cn1)NC(=O)[C@H](Cc1ccccc1)NC(=O)[C@@H](NC(=O)[C@H](CC(C)C)NC(=O)[C@H](CC(=O)O)NC(=O)[C@H](CC(C)C)NC(=O)[C@H](CO)NC(=O)[C@@H](NC(=O)[C@@H]1CCCN1C(=O)[C@@H]1CCCN1C(=O)[C@H](CCC(=O)O)NC(=O)[C@H](CCC(=O)O)NC(=O)[C@@H](N)CO)[C@@H](C)CC)[C@@H](C)O)C(C)C)[C@@H](C)CC)C(N)=O [CRF, corticotropin releasing factor]",Effect of CRF on NMDA receptor EPSCs,[1],potentiated
same,Change in mIPSC properties by CRF after pre-treatment,[2],did not induce changes; also recorded: do not produce significant changes
